{
  "source": "PubChem BioAssay (NCI)",
  "test_in_all_cases": "NCI anticancer screen, dose series, 48 h",
  "key": {"NCI-H226 lung": {"test_system": "NCI-H226 lung"}, "NCI-H23 lung": {"test_system": "NCI-H23 lung"}, "NCI-H460 lung": {"test_system": "NCI-H460 lung"}, "NCI-H522 lung": {"test_system": "NCI-H522 lung"}, "NCI/ADR-RES ovarian": {"test_system": "NCI/ADR-RES ovarian"}, "OVCAR-3 ovarian": {"test_system": "OVCAR-3 ovarian"}, "OVCAR-4 ovarian": {"test_system": "OVCAR-4 ovarian"}, "OVCAR-5 ovarian": {"test_system": "OVCAR-5 ovarian"}, "OVCAR-8 ovarian": {"test_system": "OVCAR-8 ovarian"}, "PC-3 prostate": {"test_system": "PC-3 prostate"}, "RPMI-8226 leukemia": {"test_system": "RPMI-8226 leukemia"}, "SF-268 CNS": {"test_system": "SF-268 CNS"}, "SF-295 CNS": {"test_system": "SF-295 CNS"}, "SF-539 CNS": {"test_system": "SF-539 CNS"}, "SK-MEL-2 melanoma": {"test_system": "SK-MEL-2 melanoma"}, "SK-MEL-28 melanoma": {"test_system": "SK-MEL-28 melanoma"}, "SK-MEL-5 melanoma": {"test_system": "SK-MEL-5 melanoma"}, "SK-OV-3 ovarian": {"test_system": "SK-OV-3 ovarian"}, "SN12C renal": {"test_system": "SN12C renal"}, "SNB-19 CNS": {"test_system": "SNB-19 CNS"}, "SNB-75 CNS": {"test_system": "SNB-75 CNS"}, "SR leukemia": {"test_system": "SR leukemia"}, "SW-620 colon": {"test_system": "SW-620 colon"}, "T-47D breast": {"test_system": "T-47D breast"}, "TK-10 renal": {"test_system": "TK-10 renal"}, "U251 CNS": {"test_system": "U251 CNS"}, "UACC-257 melanoma": {"test_system": "UACC-257 melanoma"}, "UACC-62 melanoma": {"test_system": "UACC-62 melanoma"}, "UO-31 renal": {"test_system": "UO-31 renal"}},
  "note": "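Dose response: 5 concentrations. Exposure: 48 h. Format: 96-well plates. Endpoint: linear interpolation; highest concentration if not reached. GI50 is the concentration that inhibits growth by half. The concentration for full growth arrest is given as TGI.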",
  "data": [
    {"smiles": "COc1cc(/C=C/C(=O)c2ccc(C)cc2)ccc1Oc1nc(Nc2ccc(F)cc2)nc(N(C)C)n1", "values": [
      {"measurement": "GI50", "setting": "NCI-H226 lung", "value": 5.22, "unit": "µM"},
      {"measurement": "TGI", "setting": "NCI-H226 lung", "value": 19.6, "unit": "µM"},
      {"measurement": "GI50", "setting": "NCI-H23 lung", "value": 5.52, "unit": "µM"},
      {"measurement": "TGI", "setting": "NCI-H23 lung", "value": 27.7, "unit": "µM"},
      {"measurement": "GI50", "setting": "NCI-H460 lung", "value": 12.1, "unit": "µM"},
      {"measurement": "TGI", "setting": "NCI-H460 lung", "value": 42.8, "unit": "µM"},
      {"measurement": "GI50", "setting": "NCI-H522 lung", "value": 9.76, "unit": "µM"},
      {"measurement": "TGI", "setting": "NCI-H522 lung", "value": 53.2, "unit": "µM"},
      {"measurement": "GI50", "setting": "NCI/ADR-RES ovarian", "value": 5.97, "unit": "µM"},
      {"measurement": "TGI", "setting": "NCI/ADR-RES ovarian", "value": 27.5, "unit": "µM"},
      {"measurement": "GI50", "setting": "OVCAR-3 ovarian", "value": 13, "unit": "µM"},
      {"measurement": "TGI", "setting": "OVCAR-3 ovarian", "value": "> 100", "unit": "µM"},
      {"measurement": "GI50", "setting": "OVCAR-4 ovarian", "value": 7.94, "unit": "µM"},
      {"measurement": "TGI", "setting": "OVCAR-4 ovarian", "value": 74.5, "unit": "µM"},
      {"measurement": "GI50", "setting": "OVCAR-5 ovarian", "value": 16.5, "unit": "µM"},
      {"measurement": "TGI", "setting": "OVCAR-5 ovarian", "value": 68, "unit": "µM"},
      {"measurement": "GI50", "setting": "OVCAR-8 ovarian", "value": 7.19, "unit": "µM"},
      {"measurement": "TGI", "setting": "OVCAR-8 ovarian", "value": 82.2, "unit": "µM"},
      {"measurement": "GI50", "setting": "PC-3 prostate", "value": 8.86, "unit": "µM"},
      {"measurement": "TGI", "setting": "PC-3 prostate", "value": "> 100", "unit": "µM"},
      {"measurement": "GI50", "setting": "RPMI-8226 leukemia", "value": 3, "unit": "µM"},
      {"measurement": "TGI", "setting": "RPMI-8226 leukemia", "value": "> 100", "unit": "µM"},
      {"measurement": "GI50", "setting": "SF-268 CNS", "value": 13.9, "unit": "µM"},
      {"measurement": "TGI", "setting": "SF-268 CNS", "value": "> 100", "unit": "µM"},
      {"measurement": "GI50", "setting": "SF-295 CNS", "value": 8.61, "unit": "µM"},
      {"measurement": "TGI", "setting": "SF-295 CNS", "value": 44.3, "unit": "µM"},
      {"measurement": "GI50", "setting": "SF-539 CNS", "value": 7.64, "unit": "µM"},
      {"measurement": "TGI", "setting": "SF-539 CNS", "value": 20.1, "unit": "µM"},
      {"measurement": "GI50", "setting": "SK-MEL-2 melanoma", "value": 8.83, "unit": "µM"},
      {"measurement": "TGI", "setting": "SK-MEL-2 melanoma", "value": 67.4, "unit": "µM"},
      {"measurement": "GI50", "setting": "SK-MEL-28 melanoma", "value": 12.3, "unit": "µM"},
      {"measurement": "TGI", "setting": "SK-MEL-28 melanoma", "value": 31.3, "unit": "µM"},
      {"measurement": "GI50", "setting": "SK-MEL-5 melanoma", "value": 5.14, "unit": "µM"},
      {"measurement": "TGI", "setting": "SK-MEL-5 melanoma", "value": 21.7, "unit": "µM"},
      {"measurement": "GI50", "setting": "SK-OV-3 ovarian", "value": 48.9, "unit": "µM"},
      {"measurement": "TGI", "setting": "SK-OV-3 ovarian", "value": "> 100", "unit": "µM"},
      {"measurement": "GI50", "setting": "SN12C renal", "value": 3.89, "unit": "µM"},
      {"measurement": "TGI", "setting": "SN12C renal", "value": 20.3, "unit": "µM"},
      {"measurement": "GI50", "setting": "SNB-19 CNS", "value": 11.1, "unit": "µM"},
      {"measurement": "TGI", "setting": "SNB-19 CNS", "value": 27.3, "unit": "µM"},
      {"measurement": "GI50", "setting": "SNB-75 CNS", "value": 15.4, "unit": "µM"},
      {"measurement": "TGI", "setting": "SNB-75 CNS", "value": "> 100", "unit": "µM"},
      {"measurement": "GI50", "setting": "SR leukemia", "value": 3.25, "unit": "µM"},
      {"measurement": "TGI", "setting": "SR leukemia", "value": 70.6, "unit": "µM"},
      {"measurement": "GI50", "setting": "SW-620 colon", "value": 2.36, "unit": "µM"},
      {"measurement": "TGI", "setting": "SW-620 colon", "value": 5.75, "unit": "µM"},
      {"measurement": "GI50", "setting": "T-47D breast", "value": 3.57, "unit": "µM"},
      {"measurement": "TGI", "setting": "T-47D breast", "value": "> 100", "unit": "µM"},
      {"measurement": "GI50", "setting": "TK-10 renal", "value": 18.2, "unit": "µM"},
      {"measurement": "TGI", "setting": "TK-10 renal", "value": "> 100", "unit": "µM"},
      {"measurement": "GI50", "setting": "U251 CNS", "value": 3.32, "unit": "µM"},
      {"measurement": "TGI", "setting": "U251 CNS", "value": 28.8, "unit": "µM"},
      {"measurement": "GI50", "setting": "UACC-257 melanoma", "value": 8.76, "unit": "µM"},
      {"measurement": "TGI", "setting": "UACC-257 melanoma", "value": "> 100", "unit": "µM"},
      {"measurement": "GI50", "setting": "UACC-62 melanoma", "value": 10.1, "unit": "µM"},
      {"measurement": "TGI", "setting": "UACC-62 melanoma", "value": 42.8, "unit": "µM"},
      {"measurement": "GI50", "setting": "UO-31 renal", "value": 4.2, "unit": "µM"},
      {"measurement": "TGI", "setting": "UO-31 renal", "value": 44.1, "unit": "µM"}
    ]}
  ]
}
